IC50 data for 2 compounds are collected here from ChEMBL document CHEMBL1201862, “PubChem BioAssay data set” (2004).

The source made the active and inactive calls. Cut-off read from the data, not from the text of the source: actives have a measured IC50 and inactives only a lower limit.

The target of this assay is Envelope glycoprotein gp160 (Human immunodeficiency virus 1, UniProt Q6QLK5). Put plainly: inhibitors of HIV fusion peptide binding, primary screen, biochemical, uHTS, fluorescence dequenching (AID 1986).
Envelope glycoprotein gp160, sequence (Q6QLK5 whole entry, the tested form may be a part): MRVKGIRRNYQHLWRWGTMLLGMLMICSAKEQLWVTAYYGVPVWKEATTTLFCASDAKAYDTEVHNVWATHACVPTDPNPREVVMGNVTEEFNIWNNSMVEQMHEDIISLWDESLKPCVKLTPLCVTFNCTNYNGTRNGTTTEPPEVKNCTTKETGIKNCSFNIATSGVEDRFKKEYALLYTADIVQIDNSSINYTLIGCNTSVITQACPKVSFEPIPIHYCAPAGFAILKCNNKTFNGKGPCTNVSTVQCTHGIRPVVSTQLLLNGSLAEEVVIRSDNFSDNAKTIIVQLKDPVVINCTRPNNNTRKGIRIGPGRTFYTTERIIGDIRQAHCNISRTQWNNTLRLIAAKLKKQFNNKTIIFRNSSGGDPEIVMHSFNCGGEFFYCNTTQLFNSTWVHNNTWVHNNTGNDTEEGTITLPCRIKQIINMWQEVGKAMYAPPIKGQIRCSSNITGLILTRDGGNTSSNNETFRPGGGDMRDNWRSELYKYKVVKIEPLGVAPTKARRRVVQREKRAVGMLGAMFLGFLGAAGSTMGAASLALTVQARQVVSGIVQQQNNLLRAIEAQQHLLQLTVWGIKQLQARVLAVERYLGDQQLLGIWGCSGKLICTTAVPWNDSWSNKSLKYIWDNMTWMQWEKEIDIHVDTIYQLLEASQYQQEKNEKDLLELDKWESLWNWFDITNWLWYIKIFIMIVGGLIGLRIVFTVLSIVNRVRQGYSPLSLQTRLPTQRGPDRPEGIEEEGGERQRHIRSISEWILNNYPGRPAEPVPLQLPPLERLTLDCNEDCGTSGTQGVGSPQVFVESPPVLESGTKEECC

For `COc1ccc(C(=O)Nc2ccc(/C(C)=N/NC(=O)c3ccncc3)cc2)cc1`, the half-maximal inhibitory concentration (IC50) (as a rule, the concentration that gives 50% inhibition) is 15 µM (active). The result for `O=C(Nc1cc(C(=O)Nc2ccccc2C(=O)O)cc(C(=O)Nc2ccccc2C(=O)O)c1)c1ccccc1` reads 6.36 µM (active).
